The data set in a line: Human HepG2 cell viability assay in 384 well format. Particulars: HepG2 cells, read-out: Inhibition. Format: toxicity, cell-based. The arrangement: dose 125 nL, time 70.5 hour; cytotoxicity at 70.5 h: concentration not given beside the values.
As for `Cc1oncc1C(=O)N1CC[C@H]2[C@@H]1CCC(=O)N2CC1CCOCC1`, the cytotoxicity at 70.5 h is -1.77%.

As for `COCCN1CCc2ncnc(N(C)C)c2CC1`, the cytotoxicity at 70.5 h is -10.9%.

Turning to `COCCN1CCc2ncnc(NC3CC3)c2CC1`, the cytotoxicity at 70.5 h is -2.68%.

Take `COCC1CN(c2ncccn2)Cc2cnn(CC3CC3)c21` (stereo not given): the cytotoxicity at 70.5 h is -6.23%.

`CC(C)N(C)Cc1cc(=O)n2c(n1)CN(C(=O)c1cnccn1)CCC2`: the cytotoxicity at 70.5 h stood at 4.66%.

On to `O=C(O)c1c(-c2ccncc2)ncc2c1CCN(Cc1ccco1)C2`, for which the cytotoxicity at 70.5 h was found to be 3.95%.

With `CCO[C@@H]1CC[C@H]2[C@H]1OCCN2C(=O)c1nn(C)c2ccccc12`, the cytotoxicity at 70.5 h came to 2.67%.

For `O=C(C1CC=CC1)N1CCCn2nnc(CNc3ncccn3)c2C1`, the cytotoxicity at 70.5 h was 0.685%.

In the case of `CC(C)N(C)Cc1cc(=O)n2c(n1)CN(C(=O)c1ccnnc1)CCC2`, the cytotoxicity at 70.5 h was -2.81%.

Take `O=C(CC1CC1)N1CCCn2nnc(CNc3ncccn3)c2C1`: the cytotoxicity at 70.5 h is -1.8%.

In the case of `CN1C(=O)C(c2cccnc2)CC12CCN(CCO)CC2` (stereo not given), the cytotoxicity at 70.5 h was -0.847%.

On to `Cc1noc(C)c1CN1C[C@H]2CNC[C@H]2C1`, for which the cytotoxicity at 70.5 h was -2.52%.

With `CCC1=N[C@@]2(CC[C@@H]3CN(C(=O)NCc4ccccc4)C[C@@H]32)C(=O)N1`, the cytotoxicity at 70.5 h was -7.28%.

On to `CCn1cc2c(n1)C(COC)CN(Cc1ccccn1)C2` (stereo not given), for which the cytotoxicity at 70.5 h came to 29.7%.

Turning to `Cc1ccc(S(=O)(=O)N2CCC3(CC(C(=O)NCC4CC4)=NO3)C2)cc1` (stereo not given), the cytotoxicity at 70.5 h was -8.09%.

Turning to `CC(C)NC(=O)N1CCC2(CC(=O)N(c3cccc(C#N)c3)C2)C1` (stereo not given), the cytotoxicity at 70.5 h is 2.44%.

Turning to `O=C(NCc1ccccc1)[C@H]1C[C@@H]2CN(S(=O)(=O)C3CC3)C[C@H]1O2`, the cytotoxicity at 70.5 h was -10.1%.

Turning to `CNC(=O)N1C[C@H]2C[C@H](C(=O)Nc3ccccc3)[C@@H](C1)O2`, the cytotoxicity at 70.5 h is -7.41%.

On to `c1cnc(OCc2nnc3n2CCN(CC2CC2)C3)nc1`, for which the cytotoxicity at 70.5 h amounted to 0.759%.

Consider `C1CC(CN2CCOCC3(CCN(C4CCOCC4)C3)C2)CCO1` (stereo not given), for which the cytotoxicity at 70.5 h is -6.07%.

Turning to `CCc1ccc(S(=O)(=O)N2CCC3(CC(C(=O)NC)=NO3)C2)cc1` (stereo not given), the cytotoxicity at 70.5 h is -10.7%.

On to `O=C(NCC1CC1)[C@H]1C[C@H]2OCC[C@H]2N(Cc2ccsc2)C1`, for which the cytotoxicity at 70.5 h was -4.19%.

Turning to `CN(C)CC(=O)N1CCC2(CCN(Cc3ccccn3)C2=O)C1` (stereo not given), the cytotoxicity at 70.5 h was -22.9%.

Turning to `O=C1CC(c2ccncc2)C2(CCN(CCO)CC2)N1` (stereo not given), the cytotoxicity at 70.5 h was -10.4%.

Take `COCC(=O)N1CCC2(CCN(Cc3ccccn3)CC2)CC1`: the cytotoxicity at 70.5 h was -23.5%.

Turning to `O=C1NCCN(CC2CC2)C12CCN(Cc1ccc3c(c1)OCO3)CC2`, the cytotoxicity at 70.5 h stood at 41.2%.

On to `O=C1NCCN(CC2CC2)C12CCN(Cc1ccco1)CC2`, for which the cytotoxicity at 70.5 h was found to be 12.8%.

On to `O=C(c1ccco1)N1CCC2(CC1)C(=O)NCCN2CC1CC1`, for which the cytotoxicity at 70.5 h is -26.8%.

For `CCOC1COC2(CCN(S(=O)(=O)c3cccc(F)c3)CC2)C1` (stereo not given), the cytotoxicity at 70.5 h is -15.5%.

Consider `CNc1cc(-c2ccncc2)ncn1`, for which the cytotoxicity at 70.5 h turned out to be 23.1%.

Turning to `Cc1ncncc1-c1ccnc(N)n1`, the cytotoxicity at 70.5 h is -2.72%.

Regarding `Cc1ncncc1-c1ccnc(N(C)C)n1`, the cytotoxicity at 70.5 h is -1.27%.

With `C[C@@H](CO)Nc1cc(-c2cn[nH]c2)ncn1`, the cytotoxicity at 70.5 h is -0.96%.

On to `Cc1ccnc(N2CCC(C(N)=O)CC2)n1`, for which the cytotoxicity at 70.5 h turned out to be 32.9%.

Regarding `CC[C@@H](CO)Nc1cc(-c2cn[nH]c2)ncn1`, the cytotoxicity at 70.5 h was found to be 3.42%.

Turning to `CCN1CC(=O)c2sc(NC(C)C)nc2C1`, the cytotoxicity at 70.5 h amounted to 5.33%.

For the molecule `CC(C)(CO)Nc1cc(-c2ccccc2)ncn1`, the cytotoxicity at 70.5 h is -2.92%.

Consider `CC(=O)NCC[C@H]1CC(C)(C)Oc2ccccc21`, for which the cytotoxicity at 70.5 h is -4.17%.

In the case of `CC(C)(C)CCNc1nccc(-c2c[nH][nH]c2=O)n1`, the cytotoxicity at 70.5 h was -4.19%.

On to `CC(C)Nc1nc2c(s1)C(=O)CN(CC1CC1)C2`, for which the cytotoxicity at 70.5 h was determined as 2.03%.

Regarding `OCCNc1nccc(-c2c[nH]nc2-c2ccco2)n1`, the cytotoxicity at 70.5 h stood at 4.01%.

As for `NCc1cc(-c2ccccc2)n2nccc2n1`, the cytotoxicity at 70.5 h is -10.1%.

As to `O=S(=O)(C1CC1)N1CCO[C@@H]2CC(COCc3cccnc3)C[C@H]21` (stereo not given in full), the cytotoxicity at 70.5 h was -2.81%.

As for `Cn1ccnc1C(=O)N1CCC2(CCN2c2ncccn2)C1` (stereo not given), the cytotoxicity at 70.5 h is 0.472%.

Regarding `N#Cc1cccc(CN2CC[C@@H]3CN(c4ncccn4)CCO[C@@H]3C2)c1`, the cytotoxicity at 70.5 h is 21.7%.

For the molecule `CC(C)n1nc(CN2CCOCC2)c2c1CN(C(=O)c1ccno1)C2`, the cytotoxicity at 70.5 h is -4.42%.

Regarding `CN(C)[C@@H]1CN(C(=O)Cc2cccc(F)c2)[C@@H]2CCCO[C@H]12`, the cytotoxicity at 70.5 h was -1.9%.

For the molecule `CN(C)[C@@H]1CN(C(=O)CCc2ccccc2)[C@@H]2CCCO[C@H]12`, the cytotoxicity at 70.5 h was -3.71%.

`CC(C)n1nc(CN2CCCCC2)c2c1CN(C(=O)c1ccno1)C2`: the cytotoxicity at 70.5 h was -8.4%.

As to `c1cc(CN2C[C@H](OCC3CCOCC3)[C@H]3COC[C@H]32)cs1`, the cytotoxicity at 70.5 h is -7.76%.

As for `O=C1CC[C@H]2[C@H](CCN2c2ncc(F)cn2)N1c1ccccc1`, the cytotoxicity at 70.5 h was -5.86%.

As to `Cc1noc([C@H]2C[C@@H]3CCN(c4nnc(C)s4)C[C@H]3O2)n1`, the cytotoxicity at 70.5 h is -8.11%.

For `CCCC(=O)NC1CCc2c(ccc(=O)n2Cc2csc(C)n2)C1` (stereo not given), the cytotoxicity at 70.5 h is -12.5%.

In the case of `CCc1ncnc2c1CCN(CCOC)CC2`, the cytotoxicity at 70.5 h was -9.59%.

On to `c1cnc(N2CCO[C@H]3[C@H](OCC4CC4)CC[C@@H]32)nc1`, for which the cytotoxicity at 70.5 h was -7.29%.

Turning to `N#Cc1cccc(CN2C[C@@H]3CN(c4ncccn4)C[C@@H]3C2)c1`, the cytotoxicity at 70.5 h is -6.36%.

For the molecule `COCCN1CCc2ncnc(-c3ccccc3)c2CC1`, the cytotoxicity at 70.5 h is -5.42%.

In the case of `CC(C)NC(=O)[C@@]12CCO[C@@H]1CCN(Cc1ccco1)C2`, the cytotoxicity at 70.5 h stood at 1.53%.

With `CCOC1COC2(CCN(Cc3cccc(C)n3)CC2)C1` (stereo not given), the cytotoxicity at 70.5 h worked out at 0.953%.

Turning to `CC(C)CN1C[C@H]2C[C@H](C(=O)NC3CCC3)[C@@H](C1)O2`, the cytotoxicity at 70.5 h was -1.14%.

On to `Cc1noc(C)c1CN1C[C@@H]2CC(F)(F)C[C@@H]2C1`, for which the cytotoxicity at 70.5 h was -2.12%.

For the molecule `CN(C)C(=O)[C@@]12CCO[C@@H]1CCN(Cc1ccc3c(c1)OCO3)C2`, the cytotoxicity at 70.5 h came to 1.17%.

Take `CCOC1COC2(CCN(c3cccc(C)n3)CC2)C1` (stereo not given): the cytotoxicity at 70.5 h is -2.34%.

As to `CCN(CC)Cc1cc(=O)n2c(n1)CN(C(=O)c1ccnnc1)CCC2`, the cytotoxicity at 70.5 h was -3.81%.

For the molecule `Cc1noc(C)c1CN1C[C@@H]2C[C@@H](C)O[C@@H]2C1`, the cytotoxicity at 70.5 h was -3.08%.

Take `CCS(=O)(=O)N1C[C@@H](OCc2cccnc2)[C@H]2OCCC[C@H]21`: the cytotoxicity at 70.5 h amounted to 6.52%.

For `CCOCC1CN(S(C)(=O)=O)Cc2cnn(CC3CCOCC3)c21` (stereo not given), the cytotoxicity at 70.5 h was -0.335%.

Take `Cn1cc(CN2C[C@@H]3COC[C@]3(CNC(=O)c3ccsc3)C2)cn1`: the cytotoxicity at 70.5 h was -5.87%.

With `CN(C)C(=O)[C@@H]1C[C@@H]2CCN(Cc3ccc4c(c3)OCO4)C[C@@H]2O1`, the cytotoxicity at 70.5 h is 1.53%.

Regarding `O=C(c1cnccn1)N1CCCC2(COCCN(CC3CC3)C2)C1` (stereo not given), the cytotoxicity at 70.5 h is -20.3%.

For the molecule `Cn1cc(CN2CCCC23CCN(C(=O)c2cccn2C)CC3)cn1`, the cytotoxicity at 70.5 h was -14.9%.

On to `Cc1ccc(C(=O)N2Cc3c(CN4CCCCC4)nn(C)c3C2)cc1C`, for which the cytotoxicity at 70.5 h is -16.2%.

`O=S(=O)(C1CC1)N1CCC2(CC1)CC(Oc1cccnc1)CO2` (stereo not given): the cytotoxicity at 70.5 h was -11.5%.

Consider `CCc1ncnc2c1CCN(Cc1ccc(OC)cc1)CC2`, for which the cytotoxicity at 70.5 h was -8.97%.

On to `c1cc(CN2Cc3nnn(CC4CC4)c3C(COCC3CC3)C2)co1` (stereo not given), for which the cytotoxicity at 70.5 h is -8.27%.

As for `COCC1CN(CC2CC2)Cc2nn(C)cc21` (stereo not given), the cytotoxicity at 70.5 h came to 13.1%.

For `Cc1ccc(N2CCC3(CCCN(C(=O)c4cccnc4)C3)C2)nn1` (stereo not given), the cytotoxicity at 70.5 h worked out at 18.8%.

For the molecule `CC(=O)N1CC(=O)N(c2ccccc2)CC12CCN(CC1CC1)C2` (stereo not given), the cytotoxicity at 70.5 h is 7.19%.

Turning to `CN(C)C[C@H]1OC[C@@H]2CCN(S(=O)(=O)c3cccs3)C[C@@H]21`, the cytotoxicity at 70.5 h turned out to be 12.4%.

For `CN1CCCn2c(nc(CNC(=O)c3ccsc3)cc2=O)C1`, the cytotoxicity at 70.5 h was -15.1%.

As for `CN1CC(=O)N(c2cnn(C)c2)CC12CCN(C(=O)c1ccsc1)C2` (stereo not given), the cytotoxicity at 70.5 h is -7.55%.

With `CN1CC(=O)N(c2ccsc2)CC12CCN(C(=O)c1ccccc1)C2` (stereo not given), the cytotoxicity at 70.5 h is -12.7%.

In the case of `Cc1ccc(CN2CCO[C@H]3[C@H](OCc4cccnc4)CC[C@@H]32)o1`, the cytotoxicity at 70.5 h worked out at 36.8%.

Turning to `O=C(O)c1c(-c2cncnc2)ncc2c1CCN(Cc1ccco1)C2`, the cytotoxicity at 70.5 h came to 24.2%.

For the molecule `Cn1nc(CN2CCCC2)c2c1CN(CC1CC1)CC2`, the cytotoxicity at 70.5 h was 2.77%.

For `c1coc(CN2CCCn3c(CN4CCOCC4)nnc3C2)c1`, the cytotoxicity at 70.5 h is 1.6%.

For `Cc1ccc(CN2CCC3(CC2)CC(c2cccnc2)C(=O)N3C)o1` (stereo not given), the cytotoxicity at 70.5 h is -2.25%.

Regarding `Fc1cnc(N2CCCC3(CCN(Cc4ccsc4)C3)C2)nc1` (stereo not given), the cytotoxicity at 70.5 h is 4.29%.

As for `c1ccc(CN2CCOCC3(CCN(C4CCOCC4)C3)C2)cc1` (stereo not given), the cytotoxicity at 70.5 h is -2.29%.

`c1ccc(OCc2nnc3n2CCN(CC2CCOCC2)C3)nc1`: the cytotoxicity at 70.5 h is -0.459%.

On to `CN(Cc1ccco1)[C@@H]1CN(Cc2ccc(F)cc2)C[C@@H]2CCCO[C@@H]21`, for which the cytotoxicity at 70.5 h turned out to be 2.25%.

As for `Cc1cccc(CN2C[C@@H]3COC[C@]3(CNC(=O)c3ccsc3)C2)n1`, the cytotoxicity at 70.5 h is -8.41%.

As to `Cc1ccc(CN2CCCn3c(nc(CN4CCCC4)cc3=O)C2)s1`, the cytotoxicity at 70.5 h was -8.86%.

Regarding `Cc1nc(CN2CCO[C@H]3[C@@H](OCc4ccccn4)CC[C@@H]32)cs1`, the cytotoxicity at 70.5 h was -23.4%.

As to `COc1ccc(CN2C[C@@H]3COC[C@]3(CN(C)C)C2)cc1`, the cytotoxicity at 70.5 h was -12.6%.

The record behind these values is ChEMBL document CHEMBL3507680, “University of Dundee, Gates Library screen for HepG2 cell viability”.
